Where two headings read alike, the source gives them in different places.

One compound from US11332440B2, “4-oxo-alkylated tetramic acid compound, and preparation method thereof” (priority 2017, dated 2022) can be followed below.

Series [1] can be described thus: MTD experiment, dose gradient by gavage. The conditions noted are these: both sexes, mouse, in vivo, po, CR mice, by gavage, read-out: maximum tolerance (MTD). In kind it is in vivo. The procedure: (§1) Mice are commonly used rodents to evaluate the toxicity of a test sample and are also an important part of early preclinical safety evaluation. In this experiment, the toxicity of compound 50561 was tested by administering a dose gradient thereof to the mice by gavage and observing its toxicity.
(§2) This experiment was designed such that for each dose centration, 10 mice were tested, including half males and half females. The males each weighed about 18-23 grams, and the females each weighed about 17-21 grams. They were randomly grouped by a simple randomization procedure. All the animals used in the experiment weighed between ±20% of the average body weight of their respective genders. If there are not enough animals in the study to meet the weight range required thereby, notify the responsible person of the project to take reasonable measures. Animals must be adapted to the laboratory for at least three days. During this period, daily cage observation was conducted once a day, and a detailed clinical observation was necessary before the experiment. Any animal with symptoms or physical abnormalities would be reported to the attending veterinarian and responsible person of the project, and excluded whenever possible. Animals suitable for experimentation will be assigned to respective experimental groups according to the random grouping method described above.
(§3) During the experiment, after administration, all animals were observed continuously for 4 hours; from the end of administration till 3 days thereafter, observations were carried out twice each day, one in the morning and the other in the afternoon; and then observation was carried out once a day. Observations included but were not limited to: skin, hair, eyes, ears, nose, mouth, chest, abdomen, external genitals, limbs, and feet. The respiratory and circulatory systems, autonomic effects (such as salivation), and nervous system (such as tremors, convulsions, stress responses, and abnormal behaviors) should be focused on. Complete anatomical examinations would be performed on all animals that had died, were dying, or planned to be euthanized. Animals found dead outside of fixed working hours could be placed in the refrigerator overnight and dissected immediately on the next working day. At the end of the experiment (14th day after administration), all animals requiring autopsy would be euthanized and autopsied.
(§4) External abnormalities in animals, such as palpable masses, should be examined in detail. The skin would be cut along the midline of the abdomen, and any subcutaneous mass would be confirmed in conjunction with the findings in the observations of animal symptoms. […] Diseased organs were removed, weighed, recoded, and kept in a fixative fluid.

Another series deals with CR mice. The series can be described thus: MTD experiment, dose gradient by gavage. The class given is in vivo. The procedure:
as §1, §2, §3, §4

For the compound `O=C1C=C(OCc2ccc(F)cc2)[C@H](Cc2ccccc2)N1` [Compound 50561], the MTD at 14 days in series [1] (CR) is below 500 mg/kg; in series [1], at least 250 mg/kg. For the same compound, the Body weight decreased result was “Body weight decreased by about 2 g, which” with CR mice (250 mg/kg by gavage) and “Body weight decreased by about 2 g;” in the series with CR mice (500 mg/kg by gavage). Besides, the Remarks result with CR mice (250 mg/kg by gavage) is “in good condition”; with CR mice (500 mg/kg by gavage), “individual activity decreased; and the body”; in the series on CR mice (750 mg/kg by gavage) it was “No abnormality of organs in dead individuals”; with CR mice (1000 mg/kg by gavage), “No abnormality of organs in dead individuals”.
